# From paper PMC4361037 (Annals of neurology, 2014)
# Where “and” joins values, the source holds several entries; their conditions need not be identical. Equal values may be shown once. Read-outs that look alike come from different tables or passages of the source.
# How the values were obtained:
# [1] = system: GAA repeat RNA–containing foci
# clinical = settings: human, in vivo, po; for half-life: t½ (elimination half-life)
# [2] = human, in vivo, po
# FXN mRNA = experiment: qRT-PCR analysis of FXN mRNA expression in FRDA iPSC-derived neurons; type: cell-based, human; settings: 10μM, 24-hour treatment
# HDAC3 versus HDAC1/2 = settings: cited from earlier work
# FXN mRNA and protein = settings: cited from earlier work; for upregulation of FXN mRNA and protein: patient PBMCs
# [3] = target: human ether-a-go-go related gene (hERG) (Homo sapiens, UniProt Q12809); experiment: Automated patch clamp assay; type: cell-based
# FXN transcription = settings: doses up to 8g per day; cited from earlier work
# [4] = system: voltage-gated Na+ channel; type: cell-based, human
# Sequence of human ether-a-go-go related gene (hERG) (Q12809 whole entry): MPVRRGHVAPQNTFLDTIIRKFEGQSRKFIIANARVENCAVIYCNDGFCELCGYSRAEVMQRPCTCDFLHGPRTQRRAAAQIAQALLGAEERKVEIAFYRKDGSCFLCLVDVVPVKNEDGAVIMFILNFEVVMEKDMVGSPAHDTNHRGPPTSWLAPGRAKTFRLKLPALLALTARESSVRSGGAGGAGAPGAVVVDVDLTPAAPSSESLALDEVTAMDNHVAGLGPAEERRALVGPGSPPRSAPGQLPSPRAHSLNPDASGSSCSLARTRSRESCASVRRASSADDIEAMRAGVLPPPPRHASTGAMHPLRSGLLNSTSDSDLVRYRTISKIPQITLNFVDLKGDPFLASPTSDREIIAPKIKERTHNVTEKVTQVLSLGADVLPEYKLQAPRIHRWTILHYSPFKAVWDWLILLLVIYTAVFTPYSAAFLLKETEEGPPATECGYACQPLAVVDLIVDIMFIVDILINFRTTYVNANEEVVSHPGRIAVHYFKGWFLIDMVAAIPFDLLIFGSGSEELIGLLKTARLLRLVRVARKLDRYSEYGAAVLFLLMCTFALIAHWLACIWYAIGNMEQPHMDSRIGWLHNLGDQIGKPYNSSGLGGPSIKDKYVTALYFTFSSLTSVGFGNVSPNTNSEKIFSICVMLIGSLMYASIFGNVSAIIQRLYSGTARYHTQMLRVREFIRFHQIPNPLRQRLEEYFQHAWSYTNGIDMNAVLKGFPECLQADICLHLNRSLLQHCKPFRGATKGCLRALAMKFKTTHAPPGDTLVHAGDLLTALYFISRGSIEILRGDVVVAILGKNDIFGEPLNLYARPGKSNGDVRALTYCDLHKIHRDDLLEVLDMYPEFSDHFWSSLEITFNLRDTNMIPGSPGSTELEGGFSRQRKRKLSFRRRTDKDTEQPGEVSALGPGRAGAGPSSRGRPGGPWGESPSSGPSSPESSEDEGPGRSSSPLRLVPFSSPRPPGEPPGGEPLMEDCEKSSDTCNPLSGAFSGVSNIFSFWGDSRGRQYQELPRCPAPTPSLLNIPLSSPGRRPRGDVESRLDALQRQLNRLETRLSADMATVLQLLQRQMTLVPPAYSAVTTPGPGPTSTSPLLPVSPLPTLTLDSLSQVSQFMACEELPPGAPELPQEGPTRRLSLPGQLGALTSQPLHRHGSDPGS
compound,measurement,setting,value
"Cc1ccc(C(=O)NCCCCCC(=O)Nc2ccccc2N)cc1 [HDACi 109, N-[6-(2-aminophenylamino) −6-oxohexyl]-4-methylbenzamide]",RNA nuclear foci,[1],lack of RNA nuclear foci
same,GAA•TTC repeat instability,GAA•TTC repeats,no effect on repeat instability
same,AUC(0-inf),clinical,39600 ng·h/mL
same,AUC(0-t),clinical,39300 ng·h/mL
same,CL/F,clinical,1.98 mL/min/kg
same,Cmax,clinical,7150 ng/mL
same,Tmax,clinical,30 min
same,Vd/F,clinical,75.5 L and 1.41 L/kg
same,k el,clinical,2.34e-05 s⁻¹
same,AUC(0-inf),clinical; 30 mg,7760 ng·h/mL
same,AUC(0-t),clinical; 30 mg,7700 ng·h/mL
same,CL/F,clinical; 30 mg,1.02 mL/min/kg
same,Cmax,clinical; 30 mg,1980 ng/mL
same,Tmax,clinical; 30 mg,40.2 min
same,Vd/F,clinical; 30 mg,45.1 L and 0.69 L/kg
same,k el,clinical; 30 mg,2.49e-05 s⁻¹
same,half-life,clinical; 30 mg,492 min
same,AUC(0-inf),clinical; 60 mg,9720 ng·h/mL
same,AUC(0-t),clinical; 60 mg,9630 ng·h/mL
same,CL/F,clinical; 60 mg,1.45 mL/min/kg
same,Cmax,clinical; 60 mg,2560 ng/mL
same,Tmax,clinical; 60 mg,40.2 min
same,Vd/F,clinical; 60 mg,79 L and 1.04 L/kg
same,k el,clinical; 60 mg,2.37e-05 s⁻¹
same,half-life,clinical; 60 mg,506 min
same,AUC(0-inf),clinical; 120 mg,22000 ng·h/mL
same,AUC(0-t),clinical; 120 mg,21700 ng·h/mL
same,CL/F,clinical; 120 mg,1.42 mL/min/kg
same,Cmax,clinical; 120 mg,6470 ng/mL
same,Tmax,clinical; 120 mg,60 min
same,Vd/F,clinical; 120 mg,89.7 L and 1.32 L/kg
same,k el,clinical; 120 mg,2.05e-05 s⁻¹
same,half-life,clinical; 120 mg,606 min
same,AUC(0-inf),clinical; 180 mg,35100 ng·h/mL
same,AUC(0-t),clinical; 180 mg,34900 ng·h/mL
same,CL/F,clinical; 180 mg,1.65 mL/min/kg
same,Cmax,clinical; 180 mg,10900 ng/mL
same,Tmax,clinical; 180 mg,40.2 min
same,Vd/F,clinical; 180 mg,52.8 L and 1 L/kg
same,k el,clinical; 180 mg,2.82e-05 s⁻¹
same,half-life,clinical; 180 mg,424 min
same,half-life,clinical,514 min
same,CL/F,[2],6.39±1.71 (5) l/h
same,Cmax (time of),[2],≤ 2 h
same,CL/F,[2]; 30 mg,3.91±0.59 (2) l/h
same,CL/F,[2]; 60 mg,6.43±1.51 (3) l/h
same,CL/F,[2]; 120 mg,5.80±1.46 (5) l/h
same,CL/F,[2]; 180 mg,5.24±0.89 (5) l/h
"Nc1ccc(-c2cccs2)cc1NC(=O)CCCCCCNC(=O)c1cccnc1 [HDACi 233, N-[2-amino-5-(2-thienyl)phenyl]-7-nicotinoylamino-heptanamide]",FXN gene expression induction compared with HDACi 109,FXN mRNA,Neither of these latter compounds induced FXN gene expression to the extent observed with HDACi 109
"Nc1cc(F)ccc1NC(=O)/C=C/c1cnn(CC=Cc2ccccc2)c1 [HDACi 966, [E]-N-[2-amino-4-fluorophenyl]-3-[1-cinnamyl-1H-pyrazol-4-yl]acrylamide]",FXN gene expression induction compared with HDACi 109,FXN mRNA,Neither of these latter compounds induced FXN gene expression to the extent observed with HDACi 109
same,selectivity for HDAC3 over HDAC1/2,HDAC3 versus HDAC1/2,~ 30 fold
Nc1ccc(-c2ccccc2)cc1NC(=O)CCCCCC(=O)Nc1ccccc1 [N[1]-[4-aminobiphenyl-3-yl]-N[7]-phenylheptanediamide],FXN upregulation,FXN mRNA and protein; patient lymphocytes,inactive
"O=C(CCCCCCC(=O)Nc1ccccc1)NO [SAHA, suberoylanilide hydroxamic acid]",upregulation of FXN mRNA and protein,FXN mRNA and protein,fail to elicit this effect
c1ccc2[nH]cnc2c1 [benzimidazole],IC50,[3],920 nM
NC(=O)c1cccnc1 [nicotinamide],restoring FXN transcription in peripheral lymphocytes from blood of orally dosed patients,FXN transcription,effective
NC1=N[C@H](O)[C@H]2[C@H]3O[C@]4(O)O[C@@H]([C@@H](O)[C@@]2(N1)[C@@H]4O)[C@]3(O)CO [tetrodotoxin],action potential generation,[4],reversibly blocked AP generation
Cc1ccc(S(=O)(=O)O)cc1 [toluene sulfonic acid],upregulation of FXN mRNA and protein,FXN mRNA and protein,fail to elicit this effect
